# From US8298555B2, “Color cosmetic compositions for topical anti-aging skin treatment” (Discovery Partners, LLC, priority 2007, dated 2012)
# Experiment: stability of absorbance spectrum under intense pulsed light (IPL) flashes
# Assay type: physicochemical
# Settings: ten pulses at the maximum power of the flash lamp
# Source text: Another aspect of the present invention is that controlled dissociation of the sodium-copper-chlorophyllin complex can occur in part because of the high stability of this complex. Normally, inorganic and organic copper salts, including copper-peptides, are not very stable with regard to binding copper. The inherent stability and lack of reactivity of sodium-copper-chlorophyllin is essential for this process to work successfully. […] Stability was monitored by measurement of the dye's full absorbance spectrum, since degradation of the dye would be detectable as changes in the absorbance spectrum.
substance,measurement,value
sodium-copper-chlorophyllin,absorbance spectrum after IPL exposure (thermal and light stability),remained unchanged
